In PubChem BioAssay AID256 (DTP/NCI, 2004):
Toxic doses and inconclusive results are not listed. Rule for the calls: active = survival T/C of 150% or more; inactive = T/C below 125% in these data.

Tested on: CD2F1 mice, L1210 leukemia ip, survival T/C
Assay: NCI In Vivo Anticancer Drug Screen. Data for tumor model L1210 Leukemia (intraperitoneal) in CD2F1 (CDF1) mice
Details: endpoint: mean survival time, higher = longer survival
How it was run: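 Vehicle-treated tumor-bearing mice served as controls (C) for compound-treated mice (T). Reported figure is T divided by C.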

[1] = dose: 75.0 mg/kg/injection, schedule: Q01DX001 (ip), vehicle: saline
[2] = dose: 150.0 mg/kg/injection, schedule: Q01DX001 (ip), vehicle: saline
[3] = dose: 300.0 mg/kg/injection, schedule: Q01DX001 (ip), vehicle: saline
[4] = dose: 100.0 mg/kg/injection, schedule: Q04DX003 (ip), vehicle: saline with Tween-80
[5] = dose: 200.0 mg/kg/injection, schedule: Q04DX003 (ip), vehicle: saline with Tween-80
[6] = dose: 400.0 mg/kg/injection, schedule: Q04DX003 (ip), vehicle: saline with Tween-80
[7] = dose: 100.0 mg/kg/injection, schedule: Q04DX002 (ip), vehicle: saline with Tween-80
[8] = dose: 100.0 mg/kg/injection, schedule: Q01DX009 (ip), vehicle: saline with Tween-80
[9] = dose: 200.0 mg/kg/injection, schedule: Q01DX009 (ip), vehicle: saline with Tween-80
[10] = dose: 400.0 mg/kg/injection, schedule: Q01DX009 (ip), vehicle: saline with Tween-80
[11] = dose: 25.0 mg/kg/injection, schedule: Q04DX002 (ip), vehicle: saline with Tween-80
[12] = dose: 50.0 mg/kg/injection, schedule: Q04DX002 (ip), vehicle: saline with Tween-80

Measured: T/C

NCC1OC(CO)C(O)C1O (configuration not stated)
inactive: dose: 100.0 mg/kg/injection, schedule: Q04DX003 (ip), vehicle: saline 91 % of control | dose: 200.0 mg/kg/injection, schedule: Q04DX003 (ip), vehicle: saline 100 % of control | dose: 400.0 mg/kg/injection, schedule: Q04DX003 (ip), vehicle: saline 104 % of control

CC[S-].CC[S-].[Ni+2]
inactive: dose: 5.0 mg/kg/injection, schedule: Q01DX001 (ip), vehicle: saline 103 % of control | dose: 10.0 mg/kg/injection, schedule: Q01DX001 (ip), vehicle: saline 103 % of control | dose: 20.0 mg/kg/injection, schedule: Q01DX001 (ip), vehicle: saline 103 % of control

COc1cc2c(cc1OC)C(Cc1ccc([N+](=O)[O-])cc1)=NCC2
inactive: dose: 100.0 mg/kg/injection, schedule: Q01DX001 (ip), vehicle: saline 96 % of control | dose: 200.0 mg/kg/injection, schedule: Q01DX001 (ip), vehicle: saline 96 % of control | dose: 400.0 mg/kg/injection, schedule: Q01DX001 (ip), vehicle: saline 102 % of control

C1=CCC2C3C=CC(CC3)C2C1 (configuration not stated)
inactive: [1] 86 % of control | [2] 95 % of control | [3] 97 % of control

CCCCCCCCCCCCCCn1cnc2ncnc(Cl)c21
inactive: dose: 6.25 mg/kg/injection, schedule: Q01DX005 (ip), vehicle: distilled water + Tween-80 100 % of control | dose: 12.5 mg/kg/injection, schedule: Q01DX005 (ip), vehicle: distilled water + Tween-80 100 % of control | dose: 25.0 mg/kg/injection, schedule: Q01DX005 (ip), vehicle: distilled water + Tween-80 93 % of control | dose: 50.0 mg/kg/injection, schedule: Q01DX005 (ip), vehicle: distilled water + Tween-80 90 % of control | dose: 100.0 mg/kg/injection, schedule: Q01DX005 (ip), vehicle: distilled water + Tween-80 91 % of control

C1=NCCN1
inactive: dose: 100.0 mg/kg/injection, schedule: Q01DX009 (ip), vehicle: saline 106 % of control | [4] 97 % of control | dose: 200.0 mg/kg/injection, schedule: Q01DX009 (ip), vehicle: saline 89 % of control | [5] 97 % of control | [6] 90 % of control

O=P(O)(O)CP(=O)(O)O.[NH-]CC[NH-].[NH-]CC[NH-].[Pd+2].[Pd+2]
inactive: dose: 3.13 mg/kg/injection, schedule: Q04DX003 (ip), vehicle: distilled water + Tween-80 95 % of control | dose: 6.25 mg/kg/injection, schedule: Q04DX003 (ip), vehicle: distilled water + Tween-80 106 % of control | dose: 12.5 mg/kg/injection, schedule: Q04DX003 (ip), vehicle: distilled water + Tween-80 95 % of control | dose: 25.0 mg/kg/injection, schedule: Q04DX003 (ip), vehicle: distilled water + Tween-80 97 % of control | dose: 50.0 mg/kg/injection, schedule: Q04DX003 (ip), vehicle: distilled water + Tween-80 98 % of control | dose: 100.0 mg/kg/injection, schedule: Q04DX003 (ip), vehicle: distilled water + Tween-80 106 % of control

O=C(Nc1ccccc1)Nc1ccc2c(c1)oc1ccccc12
inactive: dose: 50.0 mg/kg/injection, schedule: Q01DX001 (ip), vehicle: Klucel (hydroxypropylcellulose) (HPC) 108 % of control | dose: 100.0 mg/kg/injection, schedule: Q01DX001 (ip), vehicle: Klucel (hydroxypropylcellulose) (HPC) 97 % of control | [7] 95 % of control | dose: 200.0 mg/kg/injection, schedule: Q01DX001 (ip), vehicle: Klucel (hydroxypropylcellulose) (HPC) 94 % of control | dose: 200.0 mg/kg/injection, schedule: Q04DX002 (ip), vehicle: saline with Tween-80 91 % of control | dose: 400.0 mg/kg/injection, schedule: Q04DX002 (ip), vehicle: saline with Tween-80 98 % of control

O=C(CCOP(=O)(N1CC1)N1CC1)OCc1ccccc1
inactive: dose: 2.0 mg/kg/injection, schedule: Q01DX009 (ip), vehicle: water 101 % of control | dose: 3.9 mg/kg/injection, schedule: Q01DX001 (ip), vehicle: Klucel (hydroxypropylcellulose) (HPC) 89 % of control | dose: 4.0 mg/kg/injection, schedule: Q01DX009 (ip), vehicle: water 98 % of control | dose: 7.8 mg/kg/injection, schedule: Q01DX001 (ip), vehicle: Klucel (hydroxypropylcellulose) (HPC) 102 % of control | dose: 8.0 mg/kg/injection, schedule: Q01DX009 (ip), vehicle: water 104 % of control | dose: 15.6 mg/kg/injection, schedule: Q01DX001 (ip), vehicle: Klucel (hydroxypropylcellulose) (HPC) 98 % of control | dose: 16.0 mg/kg/injection, schedule: Q01DX009 (ip), vehicle: water 106 % of control | dose: 31.2 mg/kg/injection, schedule: Q01DX001 (ip), vehicle: Klucel (hydroxypropylcellulose) (HPC) 88 % of control | dose: 32.0 mg/kg/injection, schedule: Q01DX009 (ip), vehicle: water 118 % of control

NC(=O)C#CC(N)=O
inactive: dose: 0.37 mg/kg/injection, schedule: Q01DX009 (ip), vehicle: saline 101 % of control | dose: 0.75 mg/kg/injection, schedule: Q01DX009 (ip), vehicle: saline 103 % of control | dose: 1.5 mg/kg/injection, schedule: Q01DX009 (ip), vehicle: saline 109 % of control | dose: 3.0 mg/kg/injection, schedule: Q01DX009 (ip), vehicle: saline 122 % of control | [8] 95 % of control | [4] 108 % of control | [9] 98 % of control | [5] 92 % of control | [10] 108 % of control | [6] 89 % of control

COc1cc([N+](=O)[O-])ccc1NC=O
inactive: [11] 103 % of control | [12] 103 % of control | [7] 90 % of control

O=C(CCl)OCc1ccc([N+](=O)[O-])o1
inactive: [4] 98 % of control | [5] 101 % of control

Cc1cc(C)c(N2C(=O)C=CC2=O)c(C)c1
inactive: dose: 6.25 mg/kg/injection, schedule: Q01DX009 (ip), vehicle: saline with Tween-80 94 % of control

CC1(C)COC(=O)C(C)(C)C1=O
inactive: [11] 107 % of control | [12] 96 % of control | [7] 96 % of control

O=C(CC(=O)c1ccccc1F)Nc1ccc([N+](=O)[O-])cc1
inactive: [8] 90 % of control | [4] 96 % of control | [9] 93 % of control | [5] 95 % of control | [10] 88 % of control | [6] 97 % of control

O=S(=O)(N1CCCCC1)N1CCNCC1
inactive: dose: 5.0 mg/kg/injection, schedule: Q01DX009 (ip), vehicle: saline with Tween-80 98 % of control | dose: 5.0 mg/kg/injection, schedule: Q04DX003 (ip), vehicle: saline with Tween-80 103 % of control | dose: 10.0 mg/kg/injection, schedule: Q01DX009 (ip), vehicle: saline with Tween-80 98 % of control | dose: 10.0 mg/kg/injection, schedule: Q04DX003 (ip), vehicle: saline with Tween-80 103 % of control | dose: 20.0 mg/kg/injection, schedule: Q01DX009 (ip), vehicle: saline with Tween-80 96 % of control | dose: 20.0 mg/kg/injection, schedule: Q04DX003 (ip), vehicle: saline with Tween-80 97 % of control

CCC(C)C(C(=O)O)C(=O)O (configuration not stated)
inactive: [1] 100 % of control | [2] 100 % of control | [3] 102 % of control
